Data on one compound can be found in BindingDB's records for patent US20240409542 (Sitryx Therapeutics, 2024).

Broadly, the EC50 is the concentration that produces a half-maximal response.

In the assay the target is Pyruvate kinase PKM (Homo sapiens, UniProt P14618). The assay can be described thus: Activation Assay Measuring In Vitro Activation of Recombinant Human PKM2. As for the experimental part: Human PKM2 was diluted into Assay Buffer comprising 50 mM imidazole, 50 mM KCl, 7 mM MgCl2, 0.01% Tween20, 0.05% BSA (pH 7.2) to a final concentration of 5 pM. Enzyme-Assay Buffer mix was dispensed into a 384-well shallow-well white-walled plate (PerkinElmer) and Test Compounds added by acoustic dispense (Echo , Labcyte Inc.). […] Kinase-Glo Plus reagent was added to each well and the plates incubated for a further 15 minutes on an orbital shaker in the dark (300 rpm, 26° C.) before luminescence measurement on a plate reader (PHERAstar FSX, BMG Labtech).
Pyruvate kinase PKM, sequence (P14618 whole entry): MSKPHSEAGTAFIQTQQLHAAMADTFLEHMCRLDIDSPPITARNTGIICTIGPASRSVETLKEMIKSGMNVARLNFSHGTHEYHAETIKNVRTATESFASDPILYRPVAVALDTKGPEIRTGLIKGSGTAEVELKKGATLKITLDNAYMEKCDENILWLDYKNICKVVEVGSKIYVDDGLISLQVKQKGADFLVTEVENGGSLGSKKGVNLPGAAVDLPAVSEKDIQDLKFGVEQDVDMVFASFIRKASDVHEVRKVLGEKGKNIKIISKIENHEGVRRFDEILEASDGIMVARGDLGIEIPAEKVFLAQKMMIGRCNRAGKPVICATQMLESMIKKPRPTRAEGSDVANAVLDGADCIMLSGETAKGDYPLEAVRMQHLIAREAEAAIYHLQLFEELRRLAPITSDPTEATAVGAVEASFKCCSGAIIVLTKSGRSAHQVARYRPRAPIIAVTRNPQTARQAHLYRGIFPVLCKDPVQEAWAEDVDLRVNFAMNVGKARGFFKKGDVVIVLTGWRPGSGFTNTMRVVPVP

Take `Cn1c2c(c3cnn(Cc4cccc(C(C)(C)O)c4)c(=O)c31)CCN(S(C)(=O)=O)C2` [US20240409542, Example 33]: the half-maximal effective concentration (EC50) turned out to be 354 nM.
